In PubChem BioAssay (NCI) one finds TGI and GI50 data, which are given here for 13 molecules.

“And” between values parts separate entries of the source, which are not always exact repeats. Equal entries are not always repeated.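 Growth conditions: 96-well plates. Treatment: test compound, 48 hours, 5 concentrations. Analysis: linear interpolation between bracketing concentrations; unreached endpoints set to highest concentration. Here, GI50 denotes the concentration required for 50% inhibition of growth. TGI is the concentration that stops growth completely.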

Common to all, as to test: NCI anticancer screen, dose series, 48 h
For assay [1], the system named is K-562 leukemia.
Assay [2] has as its system U251 CNS.
For assay [3], the system named is HOP-62 NSCLC.
For assay [4], the system named is HS 578T breast.
The subject of assay [5] is MDA-MB-435.
Assay [6] deals with CCRF-CEM leukemia.
Assay [7] deals with SF-539 CNS.
Assay [8] deals with T-47D breast.
In assay [9] the test system is NCI-H460 lung.
The test system of assay [10] is SR leukemia.

`COc1ccccc1N1CCN(CCCCNC(=O)c2ccc([N+](=O)[O-])o2)CC1`: the TGI in assay [1] is more than 60.5 µM; in assay [2], 24.6 µM; in [3], 16.5 µM; in [4], 41 µM; in assay [5], 12 µM; in assay [6], 58.2 µM. The TGI is 19.5 µM in [7], 40.3 µM in [8], 12.5 µM in [9] and more than 58.3 µM in [10].
Turning to `COC(CNC(=O)CNC(=O)c1ccc(C(F)(F)F)cc1)OC`, the TGI in [1], in [2], in assay [4], in assay [5], in assay [6] and in assay [7] was more than 100 µM throughout. The TGI in assay [8], in [9] and in assay [10] was more than 100 µM throughout.
As for `c1ccc(CN2CCC(=NN3CCCCC3)CC2)cc1`, the TGI in assay [1], in assay [2], in [3], in assay [4], in assay [5] and in assay [6] was more than 100 µM in each case. Also, the TGI in assay [7], in assay [8], in assay [9] and in assay [10] was more than 100 µM throughout.
Consider `O=[N+]([O-])c1cc(C2(N3CCCCC3)CCCCC2)sc1Br`, for which the TGI in assay [1] is 14.1 µM; in [2], 19.1 µM; in [3], 17.3 µM; in assay [4] it was more than 58.5 µM; in assay [5], 17 µM; in [6] it was 7.33 µM. The TGI in assay [7] was found to be 17.9 µM; in [8], 4.64 µM; in [9] it was 29.5 µM; in assay [10], 10.7 µM.
For `CCOC(=O)c1c(N2CCCC2)[nH]c(=O)c(C(c2c(O)c(C(=O)OCC)c(N3CCCC3)[nH]c2=O)C(C)C)c1O`, the TGI in assay [1], in assay [2], in [3], in assay [4], in [5] and in assay [6] was more than 100 µM throughout. Also, the TGI in assay [7], in assay [8], in assay [9] and in assay [10] was more than 100 µM in each case.
For the molecule `CC(C)C[S+]1C2=C([O-])CC(C)(C)CC2=Nc2ccccc21` (stereo not given), the TGI in assay [1], in assay [2], in assay [3], in assay [4], in assay [5] and in [6] was more than 100 µM throughout. Besides, the TGI in assay [7] was more than 100 µM; in assay [8], more than 100 µM; in assay [9], more than 100 µM; in assay [10], 75.8 µM.
`COC(=O)C1OC(O[C@H]2CC[C@]3(C)[C@H]4CC=C5[C@@H]6CC(C)(C)CC[C@]6(C(=O)OC)CC[C@@]5(C)[C@]4(C)CC[C@H]3C2(C)C)C(O)C(O)C1O` (stereo not given in full): the TGI in assay [1] was 46.3 µM; in assay [2], 25.1 µM; in assay [3] it was 31.9 µM; in assay [4], 46.8 µM; in [5] it was 30 µM; in assay [6], 23.2 µM. Further, the figures for the TGI in assay [8], in assay [9] and in [10] were 40.9 µM, 25.7 µM and 14.4 µM, respectively.
Take `CCOC(=O)Oc1cc2ccsc2c2c1c1ccccc1n2C(=O)OCC`: the TGI in assay [1], in assay [2], in assay [3], in assay [4], in assay [5] and in assay [6] was more than 100 µM in each case. Further, the TGI was more than 100 µM in assay [7], more than 100 µM in assay [8], 86.1 µM in [9] and more than 100 µM in [10].
For the molecule `O=C1c2ccccc2N=C(c2cc3c(cc2Cl)Sc2nccn2S3(=O)=O)OS(=O)(=O)N1c1ccccc1`, the TGI in assay [1] was 74.5 µM; in assay [2], more than 100 µM; in assay [3], 76.2 µM; in assay [4], more than 100 µM; in assay [5] it was 51.4 µM; in [6] it was 41.7 µM. The TGI in assay [7] is more than 100 µM; in [8], more than 100 µM; in assay [9], more than 100 µM; in assay [10] it was 26.2 µM.
With `CN(C)CCCNC(=O)N/N=C/c1ccc(O)cc1`, the TGI in assay [1], in [2], in assay [3], in assay [4], in assay [5] and in [6] was more than 100 µM each time. In addition, the TGI in assay [7], in assay [8], in assay [9] and in assay [10] was more than 100 µM each time.
On to `COC(=O)[C@H](CNC(=O)/C=C/c1ccc(OC(C)=O)c(OC(C)=O)c1)NC(=O)/C=C/c1ccc(OC(C)=O)c(OC(C)=O)c1`, for which the TGI in [1], in [2], in [3], in [4], in [5] and in [6] was more than 100 µM throughout. Further, the TGI in assay [7], in [8], in [9] and in assay [10] was more than 100 µM throughout.
With `COc1ccc(/C=C2/N=C(N/N=C\C(O)C(O)C(O)CO)NC2=O)cc1` (stereo not given), the GI50 in assay [1] is 33 µM; in [3], > 100 µM and 49.6 µM; in assay [8], 87.7 µM and 33.2 µM. Besides, the TGI in assay [1], in assay [2], in assay [3], in [4], in assay [5] and in assay [6] was more than 100 µM each time. In addition, the TGI was 40.1 µM in [7], more than 100 µM in [8], more than 100 µM in assay [9] and more than 100 µM in assay [10].
With `O=C(O)c1cc2ccccc2c(Cc2c(O)c(C(=O)O)cc3ccccc23)c1O`, the TGI in assay [1], in assay [2], in assay [3], in assay [4], in [5] and in assay [6] was more than 100 µM in each case. Besides, the TGI in assay [8], in assay [9] and in assay [10] was more than 100 µM each time.
